A word on the IC50: it is the concentration at which inhibition is half-maximal.

Two molecules from patent publication US20080207632A1, “PROTEIN KINASE INHIBITORS” (SUPERGEN, INC., priority 2006, published 2008) can be followed below.

Data set [1] has as its system MDA-MB-231 breast carcinoma cells. The experiment in a line: cell proliferation assay (Cell-Titer-Glo), MDA-MB-231. To be noted: Homo sapiens. It is filed as cell-based. As to the method: Cell culture-based assays can be used to evaluate the ability of compounds of the invention to inhibit one or more cellular activities, such as cancer cell growth and/or survival. Numerous cancer cell lines can be obtained from the American Type Culture Collection (ATCC) and other sources. Briefly, cells are seeded into 96-well, tissue-culture treated, opaque white plates (Thermo Electron, Vantaa, Finland), at between 5000 and 10000 cells per well, depending on the speed of cell proliferation, in 100 μl of appropriate growth medium (determined by the ATCC). Cells are then exposed to the appropriate concentration of drug or an equal amount of DMSO (drug diluent) and allowed to grow in its presence for 96 hours. Following this, 100 μl of Cell-Titer-Glo reagent (Promega, Inc., Madison, Wis.) is added to each well. Plates are then shaken for 2 minutes at room temperature to allow for cell lysis and incubated for 10 minutes to stabilize the luminescent signal. Similar to the Kinase-Glo assay reagent from Promega, this reagent contains both luciferase enzyme and its substrate luciferin. Luciferase, activated by ATP in the cell lysate, catalyzes the conversion of luciferin to oxyluciferin, a reaction which produces light. The amount of light produced is proportionate to the amount of ATP in the cell lysate, which is itself proportional to cell number and gives an index of cellular proliferation.
Compound 1-1 and Compound 2-11 were tested in a cell proliferation assay to determine potency in a cell-based assay format. Briefly, MDA-MB-231 breast carcinoma cells were inoculated onto 96-well plates and incubated in the presence of compounds for 96 hours. Following incubation, cells were lysed and ATP content used as a surrogate for cell number, using the Cell-Titer-Glo Luminescent Cell Viability Assay Kit (Promega Corp.). IC50 values, representing the concentration required to reduce cell number to 50% of untreated controls, were determined to be 20 uM for Compound 1-1 and 10 uM for Compound 2-11.

The target in another data set is T1, Axl kinase (Homo sapiens, UniProt P30530).
T1 construct: purchased BPS Bioscience Inc, San Diego Calif
The experiment in a line: Axl kinase inhibition assay (Kinase-Glo). It is filed as biochemical. To be noted: 3 μM ATP. How it is done:
One illustrative manner in which Axl kinase activity can be determined is by quantifying the phosphorylation of a known Axl substrate in an in vitro assay. In this assay kinase activity is determined by quantifying the amount of ATP remaining in solution following the kinase reaction by measuring the relative light units (RLU) produced by luciferase using a luminometer. Percent activity was determined for individual compounds by comparing luminometer readings of drug-treated reactions to controls containing no drug (RLUNO Inhib) and no […] enzyme (RLUNO Kinase) in the following equation: […]
In a 50 μl reaction, 200 ng/μl of Axl kinase (BPS Bioscience Inc, San Diego Calif.) was incubated at 30° C. for two hours with shaking (360 rpm) with 10 μg/ml Poly (Glu:Tyr) substrate (BPS Bioscience Inc, Calif.), 3 μM ATP. (Invitrogen, Carlsbad, Calif.) and kinase reaction buffer (40 mM MOPS, 75 mM MgCl2 and 0.1 mM EDTA). The value of 3 μM ATP was determined to be the Km (concentration at which the enzyme is working at 50% maximum velocity) for the amount of enzyme used in this assay. […] Kinase activity is determined by quantifying the amount of ATP remaining in solution following the kinase reaction by measuring the relative light units (RLU) produced by luciferase using a luminometer (Thermo Electron Corporation, Vantaa, Finland).
(In Kinase-Glo more light means more ATP remaining.)

The next data set has as its system DU145 carcinoma. The experiment in a line: DU145 prostate cancer xenograft. It is filed as in vivo. How it is done:
In this study, DU145 carcinoma model was used to evaluate the anti-tumor efficacy of compound 2-3. The murine xenograft model was established by inoculating 2×10^6 cells into each Balb/c nude mouse via s.c. injection. When the average tumor size reached ˜100 mm^3, the mice were randomly divided into different experimental groups based on tumor size. Subcutaneous administration of compound 2-3 was conducted via an Alzet osmotic pump. On day 30 a second cycle of dosing was initiated.

Data set [2] deals with HT-29 Colorectal Xenograft. The experiment in a line: HT-29 colorectal xenograft, route of administration (Example 70). The data set is classed as in vivo, mice. The settings on record: intraperitoneal ALZET osmotic pump, 25 mg/kg/day over 14 days. As to the method: This study examined the effect of route of administration on tumor growth inhibition. Tumor bearing mice were treated with compound 2-3 intraperitoneally (ALZET osmotic pumps, delivering 25 mg/kg/day over 14 days) or intravenously (80 mg/kg/d on Days 1, 4 and 7). Because of difficulty in maintaining tail vein patency, this group of mice received subsequent dose intraperitoneally on Days 10, 11, 12 and 15. Compound 2-3 delivered continuously via the osmotic pump decreased tumor growth rate to 10.75 mm^3/d, compared with vehicle-treated tumor growth rate of 28.28 mm^3/d (see FIG. 5). Treated/Control ratio was 38%. […] However, after dosing was switched to IP, this effect was lost.

Data set [3] has as its system Histone H3 phospho-Serine 10 in MiaPaCa-2 cells. The experiment in a line: Western Blot for Histone H3 phospho-Serine 10. To be noted: synchronized MiaPaCa-2 cells, 30 µM compound, 24 hours. The data set is classed as cell-based. The source says: A hallmark of Aurora-2 kinase inhibition, which distinguishes it from Aurora-1 kinase inhibition, is an increase in Histone H3 phosphorylation on Serine 10, an activity which is controlled by Aurora-1 kinase. This is in contrast to the decrease in Histone H3 phosphorylation that has been observed with Aurora-1 kinase inhibition. Compound 2-3 was examined for its effect on Histone H3 phosphorylation, in order to further verify its specificity for Aurora-2 kinsase. Briefly, MiaPaCa-2 cells were grown in 25 cm^2 flasks to approximately 40% confluency, and then synchronized with Aphidicolin and Hoechst 33342 as described above. Cell were then released and treated with 30 µM compound 2-3 in culture medium for 24 hours. Cells were then lysed, and total protein was quantified. 50 μg of total protein was electrophoresed and transferred to nitrocellulose, at which time Western Blot analysis for Histone H3 phospho-Serine 10 was performed. […] This signal quickly disappeared, as the cells began to undergo apoptosis, as discussed earlier.
In general terms: Immunoblotting shows a protein as a band on a membrane.

Data set [4] has as its system Granta-22 lymphoma cell line. The experiment in a line: lymphoma cell number reduction, Granta-22. It is filed as cell-based. To be noted: 48 hours; read-out: IC50 Values Granta-22, single agent. How it is done: New IC50 values were calculated for the second agent in an effort to determine whether or not pretreatment with one compound would increase sensitivity to the other. As set forth in the table below, compound 2-3 pretreatment led to an increased sensitivity to Taxol®, however Taxol® pretreatment appeared to be […] to compound 2-3 in this assay.

Read-outs that look alike come from different tables or passages of the source.

T1 sequence (P30530 26-894): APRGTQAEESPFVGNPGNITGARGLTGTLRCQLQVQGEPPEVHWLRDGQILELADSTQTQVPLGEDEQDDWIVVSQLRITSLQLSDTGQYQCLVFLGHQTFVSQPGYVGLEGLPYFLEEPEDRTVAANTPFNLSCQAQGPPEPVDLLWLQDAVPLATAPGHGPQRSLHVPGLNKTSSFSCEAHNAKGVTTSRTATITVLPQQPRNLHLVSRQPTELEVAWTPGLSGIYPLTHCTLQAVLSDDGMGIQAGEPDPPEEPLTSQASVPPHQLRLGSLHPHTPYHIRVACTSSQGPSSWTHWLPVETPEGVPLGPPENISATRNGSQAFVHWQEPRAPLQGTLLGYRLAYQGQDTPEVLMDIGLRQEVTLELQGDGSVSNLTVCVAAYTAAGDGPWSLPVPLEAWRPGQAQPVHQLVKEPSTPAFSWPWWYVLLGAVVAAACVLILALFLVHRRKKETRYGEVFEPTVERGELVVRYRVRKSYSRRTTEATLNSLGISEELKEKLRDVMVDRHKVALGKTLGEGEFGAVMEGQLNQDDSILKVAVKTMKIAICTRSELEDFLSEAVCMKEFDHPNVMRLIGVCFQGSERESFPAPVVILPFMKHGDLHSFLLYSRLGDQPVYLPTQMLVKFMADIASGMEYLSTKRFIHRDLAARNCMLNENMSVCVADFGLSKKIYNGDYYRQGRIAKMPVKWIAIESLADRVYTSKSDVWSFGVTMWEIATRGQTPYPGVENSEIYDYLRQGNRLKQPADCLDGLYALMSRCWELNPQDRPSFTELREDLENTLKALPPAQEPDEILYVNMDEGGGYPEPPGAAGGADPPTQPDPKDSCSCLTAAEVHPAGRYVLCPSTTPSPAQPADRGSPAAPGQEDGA

Regarding `CC(=O)NS(=O)(=O)c1ccc(NC(=S)N2CCN(c3ncnc4[nH]c5cc(C(F)(F)F)c(Cl)cc5c34)CC2)cc1` [Compound 1-1, 4-(6-Chloro-7-trifluoromethyl-9H-pyrimido[4,5-b]indol-4-yl)-piperazine-1-carbothioic acid (4-acetylsulfamoyl-phenyl)-amide], the IC50 in data set [1] (Example 65, 96 hours, read-out: IC50 (reduce cell number to 50% of untreated controls)) was determined as 20 µM; in data set [1] (Table 10, 96 hours, read-out: IC50 MDA-MB-231 (inhibit cell growth to 50% of untreated)), 20.2 µM; against Axl kinase, 9.8 µM.

With `COc1cc2[nH]c3ncnc(N4CCN(C(=S)Nc5ccc(S(=O)(=O)Nc6ccc(F)cc6)cc5)CC4)c3c2cc1OC` [Compound 2-3, 4-(6,7-dimethoxy-9H-pyrimido[4,5-b]indol-4-yl)-N-(4-(N-(4-fluorophenyl)sulfamoyl)phenyl)piperazine-1-carbothioamide], the tumor growth result in the data set on DU145 carcinoma (Alzet osmotic pump subcutaneous or intravenous, second cycle on day 30) is given as “led to a reduction in tumor growth”. Besides, the “tolerability of repeat dose (weight loss)” value in the data set with DU145 carcinoma (repeat dose in mice) is listed as “well tolerated”. In addition, the “efficacy by route of administration” value with DU145 carcinoma (subcutaneous versus intravenous) is “more effective when administered subcutaneously than intravenously”. Moreover, in data set [2], the Treated/Control ratio is 38% and the tumor growth rate amounted to 10.75 mm^3/d. Further, in data set [3], the “Histone H3 Serine 10 phosphorylation” value is “pronounced phosphorylation signal”. Further, the IC50 in data set [4] worked out at 6.67 µM.
